Patent US4826845A, “3(2H)-pyridazinones and pharmaceutical compositions thereof” (Richter Gedeon Vegyeszeti Gyar T.R., priority 1985, dated 1989)
Where a name gives a salt, the structure may show the parent alone. Read-outs that look alike come from different tables or passages of the source.

Key:
anaesthetized cats = test: Hypotensive and heart rate effects on anaesthetized cats after intravenous or intraduodenal administration; assay type: in vivo, cat
Procedure: The cats were anaesthetized by intraperitoneally administering 35 mg/kg of sodium pentobarbital while promoting the spontaneous respiration by the introduction of a trachea cannula. On one side, the femoral vessels are cannulated. The cannula introduced to the femoral vein was used for the intravenous administration of the compounds to be tested. The arterial cannula was connected with a Hellige electromanometer by using a Statham P 23 Db transducer for measuring the mean arterial pressure. The heart rate was continuously registered by means of a cardiotachometer triggered by the pulse wave sign of the electromanometer.
In an other series of these experiments, the compound to be tested was administered through a duodenal tube. The compound of Example 3 (or 12) was used in intravenous doses of 0.5, 1.0 and 5.0 mg/kg as well as in intraduodenal doses of 1.25, 5.0 and 10.0 mg/kg.

Acute toxicity in rats = conditions: rat, in vivo
Source text: Male and female CFY rats and mice were used.

Question: For `O=c1cccnn1CCCNCC1COc2ccccc2O1` (stereo not shown) [Example 3 (or 12), 2-[3-(benzo[1,4]dioxan-2-yl-methylamino)-1-propyl]-3(2H)-pyridazinone hydrochloride], which duration of hypotension (anaesthetized cats; 0.5 mg/kg i.v.) is on record?
Answer: 60 min

Question: And the half-life of hypotension (anaesthetized cats; 0.5 mg/kg i.v.)?
Answer: about 30 minutes

Question: What about the “heart rate effect (in words)” value (anaesthetized cats; 0.5 mg/kg i.v.) of the same molecule?
Answer: accompanied by bradycardia

Question: What about the hypotension (anaesthetized cats; 0.5 mg/kg i.v.) of the same molecule?
Answer: 50%

Question: And the “maximum of the hypotension, intravenous versus intraduodenal” value (anaesthetized cats; 1.0 mg/kg i.v. versus 1.25 mg/kg intraduodenal)?
Answer: nearly equal

Question: And the “decrease in the blood pressure” value (anaesthetized cats; 1.25 mg/kg intraduodenal)?
Answer: 50%

Question: What about the “duration of hypotension (detected up to)” value (anaesthetized cats; 1.25 mg/kg intraduodenal) of the same molecule?
Answer: up to 2 hours

Question: What about the “time of development of hypotension” value (anaesthetized cats; 1.25 mg/kg intraduodenal) of the same molecule?
Answer: ≤ 15 min

Question: What about the “heart rate effect (in words)” value (anaesthetized cats; intraduodenal) of the same molecule?
Answer: significantly diminished

Question: And the LD50 at 336 h (Acute toxicity in rats; ip, female, i.p., read-out: LD50 i.p.)?
Answer: 97.8 mg/kg

Question: And the LD50 at 336 h (Acute toxicity in rats; ip, male, i.p., read-out: LD50 i.p.)?
Answer: 116 mg/kg

Question: And the LD50 at 336 h (Acute toxicity in rats; po, female, p.o., read-out: LD50 p.o.)?
Answer: 400 mg/kg

Question: What about the LD50 at 336 h (Acute toxicity in rats; po, male, p.o., read-out: LD50 p.o.) of the same molecule?
Answer: 600 mg/kg
